Assay results as given in patent US20260042731A1, “(2,4-DICHLOROPHENOXY)ACETIC ACID ANALOGS” (CORTEVA AGRISCIENCE LLC, priority 2022, published 2026).
Values joined by “and” are separate entries in the source; they are usually repeats but may differ in a detail not shown here. Identical values can stand only once. Like-named read-outs stand apart in the source and are kept apart here.

Tests used:
[1] = test system: Amaranthus rudis (AMATA), tall water hemp; assay: Postemergence herbicide evaluation, growth of Amaranthus rudis (AMATA); assay type: in vivo; settings: Amaranthus tuberculatus, post-emergence, read-out: Ave. AMATA
[2] = test system: Ambrosia artemisiifolia (AMBEL), common ragweed; assay: Postemergence herbicide evaluation, growth of Ambrosia artemisiifolia (AMBEL); assay type: in vivo; settings: Ambrosia artemisiifolia, post-emergence, read-out: AVE. AMBEL
[3] = test system: Abutilon theophrasti (ABUTH), velvetleaf; assay: Postemergence herbicide evaluation, growth of Abutilon theophrasti (ABUTH); assay type: in vivo; settings: Abutilon theophrasti, post-emergence, read-out: AVE. ABUTH
[4] = test system: Chenopodium album (CHEAL), common lambsquarters; assay: Postemergence herbicide evaluation, growth of Chenopodium album (CHEAL); assay type: in vivo; settings: Chenopodium album, post-emergence, read-out: Ave. CHEAL
[5] = Volatility of compounds measured by thermogravimetric analysis (TGA); assay type: physicochemical
[6] = test system: weeds ABUTH, AMATA, AMBEL, CHEAL, ERICA; assay: Postemergence herbicide evaluation, overall average % weed control across ABUTH, AMATA, AMBEL, CHEAL and ERICA; assay type: in vivo; settings: post-emergence, read-out: Overall Ave % Weed Control

Row | Structure (SMILES) | pest or weed control at 280 g/ha ([1]; 168 h) | pest or weed control at 280 g/ha ([1]; 336 h) | pest or weed control at 560 g/ha ([1]; 336 h) | pest or weed control at 280 g/ha ([1]; 504 h) | pest or weed control at 560 g/ha ([1]; 504 h) | pest or weed control at 560 g/ha ([2]; 168 h) | pest or weed control at 280 g/ha ([2]; 336 h) | pest or weed control at 280 g/ha ([2]; 504 h) | pest or weed control at 560 g/ha ([2]; 504 h) | pest or weed control at 280 g/ha ([3]; 504 h) | pest or weed control at 560 g/ha ([3]; 504 h) | pest or weed control at 280 g/ha ([4]; 168 h) | pest or weed control at 560 g/ha ([4]; 168 h) | pest or weed control at 280 g/ha ([4]; 336 h) | pest or weed control at 560 g/ha ([4]; 336 h) | pest or weed control at 280 g/ha ([4]; 504 h) | pest or weed control at 560 g/ha ([4]; 504 h) | TGA Data (rate of weight loss, volatility) [5] | pest or weed control at 280 g/ha ([6]; 504 h) | pest or weed control at 560 g/ha ([6]; 504 h) | further results
1 | O=C(COc1ccc(Cl)cc1Cl)OCCCCCOC(=O)COc1ccc(Cl)cc1Cl [Compound B8] | 84% | 92.5% | 96.5% | 92.5% | 100% | 72.5% | 90% | 100% | 100% | 97% | 99% | 80% | 82.5% | 92.5% | 97% | 96% | 99.5% | 0.3521 µg/min and 0.38 µg/min | 96.8% | 99.7% | pest or weed control at 280 g/ha ([6]; 168 h): 74.3%; pest or weed control at 560 g/ha ([6]; 168 h): 79.8%; pest or weed control at 280 g/ha ([6]; 336 h): 90.4%; pest or weed control at 560 g/ha ([6]; 336 h): 95.9%
2 | O=C(COc1ccc(Cl)cc1Cl)OCCOC(=O)COc1ccc(Cl)cc1Cl [Compound B9] | 72.5% | 91% | 90% | 70% | 82.5% | 74% | 70% | 100% | 100% | 98.5% | 75% | 82.5% | 77.5% | 94% | 95% | 97.5% | 92.5% | 0.1482 µg/min | 92.5% | 89.9% | pest or weed control at 560 g/ha ([1]; 168 h): 77.5%; pest or weed control at 280 g/ha ([2]; 168 h): 77.5%; pest or weed control at 560 g/ha ([2]; 336 h): 85%; pest or weed control at 280 g/ha ([3]; 168 h): 57.5%; pest or weed control at 560 g/ha ([3]; 168 h): 57.5%; pest or weed control at 280 g/ha ([3]; 336 h): 77.5%; pest or weed control at 560 g/ha ([3]; 336 h): 70%; pest or weed control at 280 g/ha ([6]; 168 h): 75%; pest or weed control at 560 g/ha ([6]; 168 h): 72.3%; pest or weed control at 280 g/ha ([6]; 336 h): 86.5%; pest or weed control at 560 g/ha ([6]; 336 h): 86.6%
3 | O=C(COc1ccc(Cl)cc1Cl)OCCCOC(=O)COc1ccc(Cl)cc1Cl [Compound B10] | 70% | 77.5% | 80% | 67.5% | 55% | 57.5% | 67.5% | 90% | 75% | 25% | 27.5% | 77.5% | 72.5% | 75% | 90% | 88.5% | 85% | 0.02488 µg/min | 72.2% | 68% | pest or weed control at 560 g/ha ([1]; 168 h): 62.5%; pest or weed control at 280 g/ha ([2]; 168 h): 62.5%; pest or weed control at 560 g/ha ([2]; 336 h): 67.5%; pest or weed control at 280 g/ha ([3]; 168 h): 27.5%; pest or weed control at 560 g/ha ([3]; 168 h): 22.5%; pest or weed control at 280 g/ha ([3]; 336 h): 25%; pest or weed control at 560 g/ha ([3]; 336 h): 32.5%; pest or weed control at 280 g/ha ([6]; 168 h): 62%; pest or weed control at 560 g/ha ([6]; 168 h): 58%; pest or weed control at 280 g/ha ([6]; 336 h): 64.5%; pest or weed control at 560 g/ha ([6]; 336 h): 69.9%
4 | O=C(COc1ccc(Cl)cc1Cl)OCCCCCCOC(=O)COc1ccc(Cl)cc1Cl [Compound B12] |  |  |  | 62.5% | 62.5% |  |  | 100% | 100% | 55% | 65% |  |  |  |  | 96.5% | 90% | 0.2274 µg/min | 82% | 82.9% | 
5 | O=C(COc1ccc(Cl)cc1Cl)OCCOCCOCCOC(=O)COc1ccc(Cl)cc1Cl [Compound B13] | 67.5% | 95% | 87.5% | 65% | 67.5% | 88.5% | 72.5% | 100% | 99% | 67.5% | 62.5% | 80% | 82.5% | 96.5% | 98% | 98.5% | 95% | 0.2318 µg/min | 86% | 84.5% | pest or weed control at 560 g/ha ([1]; 168 h): 75%; pest or weed control at 280 g/ha ([2]; 168 h): 72.5%; pest or weed control at 560 g/ha ([2]; 336 h): 75%; pest or weed control at 280 g/ha ([3]; 168 h): 55%; pest or weed control at 560 g/ha ([3]; 168 h): 45%; pest or weed control at 280 g/ha ([3]; 336 h): 62.5%; pest or weed control at 560 g/ha ([3]; 336 h): 57.5%; pest or weed control at 280 g/ha ([6]; 168 h): 72%; pest or weed control at 560 g/ha ([6]; 168 h): 75.7%; pest or weed control at 280 g/ha ([6]; 336 h): 83.6%; pest or weed control at 560 g/ha ([6]; 336 h): 82.6%
